Reference: patent US20200165572A1, “ENGINEERED SUBSTRATES FOR HIGH-THROUGHPUT GENERATION OF 3D MODELS OF TUMOR DORMANCY, RELAPSE AND MICROMETASTASES FOR PHENOTYPE SPECIFIC DRUG DISCOVERY AND DEVELOPMENT” (Arizona Board of Regents on behalf of Arizona State …, priority 2015, published 2020)
Entries after “also recorded” stand apart in the source; their conditions may differ. Read-outs that look alike come from different tables or passages of the source. Peptide text beside a SMILES is read from it. * marks the point of attachment. Cbz = O=C(OCc1ccccc1)*; CH2F = FC*

Assays:
dormant T24 3DTMs [1] = details: for effect of pan-caspase inhibition on thapsigargin-bortezomib induced cell death: dormant T24 spheroids
Description: (§1) Different concentrations (12.5, 25, 50 and 100 μM) of the anticancer drugs docetaxel, (10-40 μM) mitoxantrone, or (250-500 μM) thioTEPA were added to 3DTMs formed after 5-7 days of initial cell seeding on Amikagel. Drugs were added to 3DTMs of T24 cells co-cultured with NIH3T3 murine fibroblasts on day 5, but added to 3DTMs of T24 cells alone on day 7 due to the different times required for their formation After 96 hours of drug exposure, 3DTMs were disassembled using 50 μl of 5 mg/ml collagenase for 20 minutes to allow disassembly for co-culture spheroids, and cell viability was assessed by Live/Dead® staining followed by flow cytometry. 3DTM viability was also measured using MTT/XTT assay as described previously [28]. […] A calcium concentration of 5 mM was used with calcimycin ionophore of different concentrations (0.1, 0.5, 1, 5 and 10 μM) were used to induce cell death. Calcium liposomes were also added at a concentration of 175 μM to the dormant cells.
(§2) Viability of 3DTMs was also determined using the Live-Dead® (Calcein AM-Ethidium homodimer) staining assay. Fresh serum free DMEM media, containing a final concentration of 1 μM of calcein AM and 2 μM of ethidium homodimer-1 (EthD-1), was added to the 3DTMs, and fluorescence imaging was carried out using a Zeiss fluorescence microscope after incubating the reagents for 20 minutes. Green fluorescence emission of calcein-AM inside the live cells was detected using 38 HE filter set (Excitation: 470/40; Emission: 525/50) and red fluorescence of nucleic acid bound-EthD-1 was detected using a 43 HE filter set (Excitation: 550/25; Emission: 605/70). The extent of red and green fluorescence were indicative of the extent of viable and dead cells, respectively, in the 3DTM.
(§3) To quantify the percent dead cells using flow cytometer following drug treatment, 3DTMs were disassembled using collagenase as described previously (whenever necessary). Disassembled cells were suspended in 1×PBS containing a final concentration of 1 μM of Calcein AM and 2 μM of Ethidium Homodimer-1 (EthD-1). After incubating for 20 minutes, fluorescence images were collected as described in previous sections. Cell viability was further quantified using flow cytometry on the same sample using BD FACSAria™ III. Red fluorescence of EthD-1 was detected using a 43 HE filter set (Excitation: 550/25; Emission: 605/70).

NIH3T3-T24 3DTMs = assay: Drug efficacy on NIH3T3-T24 3DTM viability; format: cell-based, human, murine
Description: After three important tumor phenotypes were captured on Amikagels, we used Amikagel-3DTM platform for high throughput drug screens against those specific phenotypes. T24 (alone), and NIH3T3-T24 3DTMs were exposed to different doses of the DNA-damaging drug, mitoxantrone (31) or the microtubule-stabilizing drug, docetaxel for 96 hours (32). Co-culture 3DTMs were treated with collagenase to allow their disassembly before cell-viability measurement. It was noticed that collagenase treatment enabled very easy diassembly of the co-culture 3DTMs, supporting our previous finding of ECM production.

dormant 3DTMs = assay: Intracellular calcium imaging; format: cell-based, human; details: 3-hour treatment
Description: Dormant 3DTMs grown on AM3 Amikagels were treated with calcimycin (0.5 and 5 μM) with calcium (5 mM) and calcium liposomes (175 μM) for 3 hours (3 dormant 3DTMs each). Following 3 hours, the 3DTMs were disassembled using rapid pipetting and cells were collected by centrifugation. The cells were washed with 1×PBS and resuspended in 50 μL cell culture media+50 μL Fluo-4 dye solution (prepared as per vendor's recommendation). After incubation for 60 minutes, the cells were imaged at excitation: 494 nm, emission: 516 nm. Green color fluorescence was used as an indicator of intracellular calcium concentration. Intracellular calcium fluorescence was quantified using imageJ.

T24 bladder cancer cells = assay: Cell cycle analysis of T24 3DTMs; format: cell-based, human
Description: Following five days of incubation on AM3 Amikagels, 3DTMs of T24 cells with NIH3T3 murine fibroblast cells were harvested for cell cycle analysis. Four or five individual 3DTMs of T24 cells alone or UMUC3 cells alone were harvested on the 7th day after seeding on Amikagels, collected in an eppendorf tube. 50 μl of 5 mg/ml collagenase was added to 3DTMs prepared using fibroblast helper cells for 30 minutes at 37° C. in order to facilitate their disassembly by gentle pipetteing. Single cell 3DTMs were disassembled using manual pipetting. Disassembled 3DTM cells were then centrifuged at 200 r.c.f. in order to collect the cell pellet. The pellet was resuspended in a solution of 1% v/v 1× Triton-X, 5% (v/v) fetal bovine serum (FBS), 50 μg/mL propidium iodide, and 0.006-0.01 units/mL ribonuclease A. After incubation for 30 minutes on ice, cells were analyzed for their cell cycle profiles using flow cytometry; the propidum iodide (PI) signal was detected using an excitation at 535 nm and emission at 617 nm. Voltages of the FL2-A, SSC and FSC channels were adjusted in order to obtain best representative peaks for alignment of 2n (diploidy—G0/G1) peak to 200 intensity units during flow cytometry. FL2A (FL2-Area) provides the information regarding the pulse area of the emitted fluorescence signal (total cell fluorescence) whereas […] light from the sample. FSC is a measure of diffracted light from the sample proportional to cell surface area or size and SSC is proportional to cell granularity or internal complexity.

dormant T24 3DTMs [2] = assay: Escape from dormancy after transfer of T24 3DTMs from AM3 to AM1 Amikagel; format: cell-based, human; details: for microcolony formation: 100 μM pre-treatment, 15 days after transfer to AM1
Description: T24 3DTMs were first formed on AM3 Amikagels, and transferred to AM1 Amikagels on the seventh day following initial cell seeding, in order to investigate the role of chemo-mechanical properties of Amikagels on 3DTM fate, dormancy and escape from dormancy. Upon transfer, 3DTMs were monitored for cell spreading and motility on the gel for an additional 7 days. After 7 days, cell cycle analysis was carried out on the all 3DTMs as described in the previous sections.
Long-term experiments were also carried out where 3DTMs were continuously monitored for 15 days after their tranfer from AM3 gel to AM1 gel. In order to study the effect of drug treatment, T24 3DTMs were first treated with 0-100 μM docetaxel for 96 hours after 7 days of initial seeding of cells on AM3 gel. After 96 hours of this drug treatment, the 3DTMs were transferred to AM1 gel to study how different chemo-mechanical properties influenced escape from dormancy. Similar studies were also performed using ROCK inhibitor Y-27632 (20 μM).

CHOP = CHOP expression by western blotting; format: cell-based, human; details: calcimycin 0.5-μM
Description: […] The lysates were then sonicated thrice for 10-15 seconds on ice and collected by centrifugation (16,000 rpm, 20 minutes, 4° C.). Supernatants containing the whole cell protein were stored at −20° C. for subsequent use.
BCA assay was used to quantify the total protein content of the cell lysates. Equivalent quantities of whole cell proteins (4 μg) were combined with 2× Laemmli buffer containing 5% β-mercaptoethanol, and were heat denatured for 5 minutes at 95° C. Equal amounts of protein (4 μg) were then loaded into to the wells of pre-cast gels and run for 35 minutes at 200 V in running buffer (25 mM Tris, […], and 0.1% SDS, pH=8.3). The proteins were transferred to a methanol-activated Hybond PVDF membrane for 30 minutes at 20 V in the transfer buffer (25 mM Tris, 190 mM glycine, and 20% methanol, pH=8.3). The Hybond PVDF membrane was rinsed with 1×PBST and blocked with 3% blocking buffer 3× for 5 minutes each. The membrane was then incubated with the primary antibody for 12 hours at 4° C. (1:1000 CHOP D46F1 Rabbit mAb primary antibody) and (1:5000 f-actin Rabbit Ab primary antibody). […]
Area of the proteins actin and CHOP on the […] membranes were measured using image-J software. The CHOP proteins from treatment samples were then normalized to their actin content and expressed which was further expressed as a percentage of the live control.

dormant T24 3DTMs [3] = assay: cells; details: Homo sapiens, 24 h, read-out: LC50
Description: as §1, §2, §3

T24 cells in 2D culture [4] = assay: cells; format: cell-based; details: Homo sapiens, T-24, 96 h, read-out: LC50
Description: Cell death (%) after exposure of 5000 T24 cells to docetaxel for 96 hours after 2D cell culture measured by using MTT assay (circles).

T24 cells in 2D culture [5] = details: cited from earlier work

COC(=O)C[C@H](NC(=O)[C@H](C)NC(=O)[C@@H](NC(=O)OCc1ccccc1)C(C)C)C(=O)CF [zVAD-fmk] (Cbz-Val-Ala-Asp(OMe)-CH2F)
effect of pan-caspase inhibition on calcimycin-induced death (dormant T24 3DTMs [1]; 24-hour, 10-μM or 5-μM calcimycin, 5 mM calcium, 5-μM zVAD-fmk): did not rescue
effect of pan-caspase inhibition on thapsigargin-bortezomib induced cell death (dormant T24 3DTMs [1]; 96 hours): reversed
effect of pan-caspase inhibition on thapsigargin-bortezomib induced cell death (dormant T24 3DTMs [1]; 96 hours, listed as z-VAD-fmk): significantly rescued

S=P(N1CC1)(N1CC1)N1CC1 [ThioTEPA]
response of NIH3T3-T24 3DTMs (NIH3T3-T24 3DTMs; up to a concentration as high as 500 μM): resistant

[Ca+2].[Cl-].[Cl-] [calcium, calcium chloride]
intracellular calcium fluorescence compared to DMSO control (dormant 3DTMs): significantly higher
impact on dormant cell viability (dormant T24 3DTMs [1]; free calcium in cell culture media 40 mM, 96 hours): minimal impact on dormant cell viability

C[C@@H](N)[C@H]1CC[C@H](C(=O)Nc2ccncc2)CC1 [Amikagel Y-27632, Y-27632]
cell cycle profile of dormant cells on AM3 gels (T24 bladder cancer cells; 20-μM, 96 hours): did not observe any changes in the cell cycle profile
cell escape from mother spheroid (dormant T24 3DTMs [2]; 20-μM for 96 hours on AM3 gel, then transfer to AM1 gel): increase in the number of cells escape

C/C=C(/C)C(=O)O[C@H]1C(C)=C2[C@H]([C@@H]1OC(=O)CCCCCCC)[C@@](C)(OC(C)=O)C[C@H](OC(=O)CCC)[C@@]1(O)[C@H]2OC(=O)[C@@]1(C)O [thapsigargin]
cell death (dormant T24 3DTMs [1]; single agent, 15-μM, 96 hour treatment): 50%

CNc1ccc2oc(C[C@H]3O[C@@]4(CC[C@H]3C)O[C@H]([C@H](C)C(=O)c3ccc[nH]3)[C@H](C)C[C@H]4C)nc2c1C(=O)O [calcimycin]
intracellular calcium fluorescence compared to DMSO control (dormant 3DTMs): significantly higher
CHOP protein expression (CHOP): No CHOP protein expression
CC50 (dormant T24 3DTMs [3]): ~10 µM
cell death dose response (dormant T24 3DTMs [1]; 24-hour time point): concentration dependent cell death

CC(=O)O[C@@]12CO[C@@H]1C[C@H](O)[C@@]1(C)C(=O)[C@H](O)C3=C(C)[C@@H](OC(=O)[C@H](O)[C@@H](NC(=O)OC(C)(C)C)c4ccccc4)C[C@@](O)([C@@H](OC(=O)c4ccccc4)[C@H]21)C3(C)C [docetaxel]
cells in G2/M phase of treated dormant T24 3DTMs (T24 bladder cancer cells; drug-treated dormant T24 3DTMs): did not change the number of cells in G2/M phase
cells in pre G0/G1 phase of treated dormant T24 3DTMs (T24 bladder cancer cells; drug-treated dormant T24 3DTMs): increase in the number of cells in the pre G0/G1 phase
cell escape from mother 3DTM (dormant T24 3DTMs [2]; 12.5 μM-100 μM for 96 hours on AM3, then transfer to AM1): significantly reduced the number of cells escaping; also recorded: significantly lesser number of cells escaped
microcolony formation (dormant T24 3DTMs [2]): drastically reduced
microcolony formation (dormant T24 3DTMs [2]; listed as Docetaxel): inhibited microcolony formation
CC50 (T24 cells in 2D culture [4]): 10 µM
cell death (dormant T24 3DTMs [1]; 100 μM, 96 hours, compared to live control): ~10%
effect on cell viability of T24 3DTMs (dormant T24 3DTMs [1]; different doses, 96 hours of exposure, listed as Docetaxel): did not have any impact on the cell viability

O=C1c2c(O)ccc(O)c2C(=O)c2c(NCCNCCO)ccc(NCCNCCO)c21 [mitoxantrone]
CC50 (T24 cells in 2D culture [5]): ~9 µM
response of NIH3T3-T24 3DTMs (NIH3T3-T24 3DTMs; doses as high as 80 μM, 96 hours): resistant
